The subject of assay [1] is male Ross 308 broilers with induced Necrotic Enteritis challenge (E. maxima, Clostridium perfringens). The class given is in vivo, broiler chickens.
The test system of assay [2] is male Ross 308 broilers with induced Necrotic Enteritis challenge. Also on record: species or system broiler chickens. The conditions noted are these: in vivo.
A further assay deals with Clostridium perfringens. The class given is in vivo.
Another assay deals with Bacillus spp. The assay is described as follows: Molecular enumeration (quantitative PCR) in digesta. The class given is in vivo.
The test system of a further assay is Vencobb 400 broilers. The format is in vivo, broiler chickens.
The next assay deals with male Ross 308 broilers. The class given is in vivo, broiler chickens. The conditions noted are these: 1-42 d.
Setting [3] is: 1-35 days, necrotic enteritis challenge.

Where two headings read alike, the source gives them in different places.

Regarding `CC[C@@H](C(=O)O)[C@@H]1O[C@@H]([C@@H](C)[C@H](O)[C@H](C)C(=O)[C@H](CC)[C@H]2O[C@]3(C=C[C@@H](O)[C@]4(CC[C@@](C)([C@H]5CC[C@](O)(CC)[C@H](C)O5)O4)O3)[C@H](C)C[C@@H]2C)[C@@H](C)C[C@@H]1C` [Narasin], the “BW, average bird body weight” value in assay [1] (setting [3]) came to 2778.4 g. Further, the “FCR, feed conversion ratio (feed to gain)” value in assay [1] (setting [3]) worked out at 1.431 g/g. Also, the “aFCR, feed conversion ratio adjusted for mortalities” value in assay [1] (setting [3]) worked out at 1.425 g/g. Besides, the “Mortality as a percentage of the pen population” value in assay [1] (day 11-35, necrotic enteritis challenge) stood at 1.3%. The “Footpad Lesion Score (0-4)” value in assay [2] was found to be 0.41. For the same molecule, the C. perfringens with Clostridium perfringens (Day 11 Cecum) is 6.38 Log^10 of gene copies/g; with Clostridium perfringens (Day 11 Ileum) it was 4.18 Log^10 of gene copies/g; in the assay with Clostridium perfringens (Day 18 Cecum), 4.87 Log^10 of gene copies/g; in the assay with Clostridium perfringens (Day 18 Ileum), 4.60 Log^10 of gene copies/g; with Clostridium perfringens (Day 35 Cecum) it was 4.81 Log^10 of gene copies/g; in the assay on Clostridium perfringens (Day 35 Ileum), 4.03 Log^10 of gene copies/g. For the same molecule, the Bacillus spp. with Bacillus spp. (Day 11 Cecum) is recorded as 5.24 Log^10 of gene copies/g; with Bacillus spp. (Day 11 Ileum), 5.68 Log^10 of gene copies/g; in the assay on Bacillus spp. (Day 18 Cecum), 4.54 Log^10 of gene copies/g; with Bacillus spp. (Day 18 Ileum), 4.94 Log^10 of gene copies/g; with Bacillus spp. (Day 35 Cecum), 5.23 Log^10 of gene copies/g; in the assay with Bacillus spp. (Day 35 Ileum) it was 4.84 Log^10 of gene copies/g.
“Bacitracin Methylene Disalicyclate [BMD]”: the “BW, average bird body weight” value is on record as 649.4 g with Vencobb 400 broilers (1-21 d) and 2321.4 g in the assay on Vencobb 400 broilers (1-42 d). The “FCR, feed conversion ratio (feed to gain)” value was 1.45 g/g in the assay on Vencobb 400 broilers (1-21 d) and 1.74 g/g with Vencobb 400 broilers (1-42 d).
Take Zinc Bacitracin [ZnB]: in the assay with male Ross 308 broilers, the “BW, average bird body weight” value was 2988.0 g; the “FCR, feed conversion ratio adjusted for mortalities” value is given as 1.78 g/g; the Mortality is 1.67%.
